Structures can show the parent of a compound that is named as a salt.
Experiments:
[1] = Solubility in water of salts; format: physicochemical; conditions: hydrochloride
Acute toxicity = conditions: mouse, in vivo, ip; intraperitoneal, male mice, 7 days
From the text: Typical compounds used in the immunoactivator according to the invention were each suspended in physiological salt solution and intraperitoneally administered into groups of male mice, each consisting of 5 mice, followed by breeding and observing for 7 days.

[2] = system: delayed-type hypersensitivity; experiment: Action on delayed-type hypersensitivity (foot sole swelling, SRBC antigen); format: in vivo, CDF1 mice (male, 12 weeks old); conditions: oral; for Thickness of Sole Swelling (± S.D.): 24 hours after second injection
From the text: In order to evaluate an action of compounds of the invention on cellular immunity which plays the most important role on the protection reaction against viral infection, the action was investigated according to the method of Lagrange et al.* using as an index the effect on the delayed-type hypersensitivity in which sheep red blood cells were provided as antigen**.
*Lagrange, P. H., G. B. Mackaness & T. E. Miller: J. Exp. Med., 139: 528-542, 1974.
**Ishizuka, M. T. Matsuda, N. Kanbayashi, S. Fukasawa, T. Takeuchi, T. Aoyagi & H. Umezawa: J. Antibiotics 33: 642-652, 1980.
That is, groups of CDF1 mice (male, 12 weeks old), each group consisting of 5 mice, were each immunized by being subcutaneously injected with 10^8 sheep red blood cells at the soles of right hind leg and were simultaneously orally dosed with 4 μg-1 mg/mouse of a compound of the invention (compound No. 3 in Table 1). Four days after the administration, 10^8 sheep red blood cells were subcutaneously injected into each mouse at the sole of the left hind leg, thereby causing the reaction. 24 hours after the injection, the thickness of the foot sole was measured and degrees of swelling of the soles were compared with one another to judge the action.

[3] = system: antibody-producing cells in the spleen; experiment: IgM antibody producing action in mice, time of administration (FIG. 1); format: in vivo, CDF1 mice (male, 12 weeks old)
Experimental: (ii) Groups of CDF1 mice (male, 12 weeks old), each group consisting of 5 mice, were each venously injected with 1×10^8 sheep red blood cells for immunization. The thus injected mice were each orally dosed with a compound of the invention (compound No. 3 in Table 1) at the same day as of the injection (0 day), 1 day, 2 days and 3 days after the injection in an amount of 100 μg/mouse. Four days after the immunization, the number of antibody-producing cells in the spleen cells of each mouse of each group was determined.

splenic cells = experiment: Action on blastogenesis of splenic cells (3H-thymidine incorporation); format: cell-based, CDF1 mice (female, 10 weeks old)
Experimental: (1) The splenic cells of CDF1 mice (female, 10 weeks old) were collected and were cultured in a 10% foetal calf serum-added RPMI 1640 medium adding a lectin such as Concanavalin A (Con A) or Lipopolysaccharide (LPS) and a compound of the invention (Compound No. 3 in Table 1), and the blasting effect was determined using as an index incorporation of ^3 H-thymidine into the cultured splenic cells.
(2) The splenic cells of the mouse to which had been added different amounts of Con A or LPS and then 10 μg/ml of the inventive compound (Compound No. 3 in Table 3) were cultured to know the effect on the blasting reaction. […] Further, in order to know whichever lectin is greatly influenced by the compound of the invention for the potentiation, a stimulatory index* was calculated from the results of FIGS. 3a and 3b. […] [formula]

peritoneal macrophages = experiment: Action on phagocytosis of peritoneal macrophage; format: in vivo, CDF1 mice (female, 8 weeks old); conditions: for T/C (phagocytosis of macrophage): peritoneal injection
Experimental: The action of the inventive compound on the phagocytosis of macrophage was investigated.
CDF1 mice (female, 8 weeks old) were each peritoneally injected with 2 ml of a thioglycolate medium to allow the peritoneal macrophages to be released. Four days after the injection, a compound of the invention (Compound No. 3 in Table 1) was peritoneally injected into each mouse in an amount ranging from 1 μg to 1 mg/mouse. 18 hours after the injection, the mice of each group was peritoneally washed with the Dulbecco phosphate buffer solution to collect the peritoneal macrophages, which were then suspended in a serum-free Dulbecco phosphate buffer solution and the suspension was placed in plastic petri dishes, followed by keeping in a 5% carbonic acid gas culture container at 37° C. for 2 hours to obtain adhesive cells. To the respective petri dishes containing the adhesive cells was added a solution of a germ Saccharomyces cervisiae. After having kept the temperature for 30 minutes, the germ solution was removed, followed by culturing 4 hours, washing, and subjecting to the Giemsa staining. Then, the number of cells phagocytizing the germ were counted under microscope to determine the effect of the compound*.
*M. Ishizuka; S. Fukasawa, T. Masuda, J. Sato, N. Kanbayashi, T. Takeuchi & H. Umezawa; J. Antibiotics 32: 330-339, 1980.

[4] = system: antibody-producing cells in the spleen; experiment: IgM antibody producing action in mice, dose dependence (antibody-producing cells/spleen, SRBC immunization); format: in vivo, CDF1 mice (male, 10 weeks old); conditions: oral; for Number of antibody-producing cells/spleen (average value): 4 days after administration
myeloid cells = experiment: Action on production of glanulocytic macrophage colony (CFU-C) at myeloid cell culture; format: cell-based, mouse
Experimental: In accordance with the methods of Metcalf* and Stanley et al.**, the myeloid cells of mouse were cultured in soft agar to which a colony stimulating factor (CSF)*** and different amounts of a compound of the invention (Compound No. 3 in Table 1) to investigate the action on the glanulocytic macrophage colony.
**Stanley, E. R., M. Cifone, P. M. Heard & V. Deffendi: J. Exp. Med. 143: 631-647, 1976.
***The mouse serum obtained 6 hours after venous injection of 5 μg of LPS into CDF1 mouse was added in an amount of 0.0125 ml as the colony stimulating factor.

mouse's spleen cells = experiment: Antibody-producing action based on cell culture (Mishell & Dutton), FIG. 2; conditions: 0.005-20 μg/ml tested; 4 days culture with 1×10^6 sheep red blood cells
From the text: The action of a compound of the invention on the antibody-producing system with respect to sheep red blood cells was investigated on the basis of the mouse's spleen cell culture according to the Mishell & Dutton's method* and its modification**.
**Click, R. E., L. Benck & B. J. Alter: Cellular Immunol. 3: 156-160, 1972.

[5] = Mus musculus, Macrophage, read-out: T/C (CFU-C)

## O=Cc1ccc(C2Oc3ccccc3C3SCCN23)cc1 (stereo not shown) [hydrochloride of the compound No. 3, 4-(2,3-dihydro-5H,10bH-thiazolo[3,2-c][1,3]benzoxadine-5-yl)benzaldehyde (Compound No. 3) hydrochloride]
[1]
  Solubility in water or physiological salt solution (in words): soluble in water or physiological salt solution

## c1ccc(C2Oc3ccccc3C3SCCN23)cc1 (stereo not shown) [Compound No. 1]
Acute toxicity
  LD50 at 168 h: 500 mg/kg

## O=Cc1ccc(C2Oc3ccccc3C3SCCN23)cc1 (stereo not shown) [Compound No. 3, 4-(2,3-dihydro-5H,10bH-thiazolo[3,2-c][1,3]benzoxadine-5-yl)benzaldehyde]
[2]; 4 μg to 1 mg/mouse
  Delayed-type hypersensitivity vs non-administered control (in words): more pronounced potentiation on the delayed-type hypersensitivity than the non-administered control groups
[2]; 4 μg/mouse
  T/C (sole swelling): 231%
  Thickness of Sole Swelling (± S.D.): 14.8 ± 1.1 × 0.1 mm
[2]; 16 μg/mouse
  T/C (sole swelling): 150%
  Thickness of Sole Swelling (± S.D.): 9.6 ± 1.0 × 0.1 mm
[2]; 62 μg/mouse
  T/C (sole swelling): 181%
  Thickness of Sole Swelling (± S.D.): 11.6 ± 1.6 × 0.1 mm
[2]; 250 μg/mouse
  T/C (sole swelling): 198%
  Thickness of Sole Swelling (± S.D.): 12.7 ± 1.7 × 0.1 mm
[2]; 1000 μg/mouse
  T/C (sole swelling): 208%
  Thickness of Sole Swelling (± S.D.): 13.3 ± 1.3 × 0.1 mm
[3]; 100 μg/mouse oral
  Time of administration after stimulation of antigen giving maximum potentiation: 1 to 2 days
[3]; 100 μg/mouse oral at day 0, 1, 2 or 3 after immunization
  Number of antibody-producing cells over non-administered groups (in words, FIG. 1): increased numbers of antibody-producing cells over the non-administered groups
Splenic cells; 10 μg/ml compound, Con A or LSP 0.5-8 μg/ml
  Blasting reaction, FIGS. 3a and 3b (in words): potentiate the blasting reaction
Splenic cells; 10 μg/ml compound, calculated from FIGS. 3a and 3b
  Stimulatory index Con A vs LPS, FIG. 4 (in words): the Con A which is T-cell mitogen is more greatly acted with the compound than the LPS
Splenic cells; 10 μg/ml, Con A and LPS
  Blasting reaction caused by the lectins (in words): accelerate the blasting reaction caused by the lectins including either of Con A and LPS
Splenic cells; compound 5 μg/ml, Con A (0.5 μg/ml)
  3H-thymidine incorporation into splenic cells: 2131 cpm/culture
Splenic cells; compound 5 μg/ml, LSP (0.5 μ/ml)
  3H-thymidine incorporation into splenic cells: 1068 cpm/culture
Splenic cells; compound 5 μg/ml, no lectin
  3H-thymidine incorporation into splenic cells: 148 cpm/culture
Splenic cells; compound 10 μg/ml, Con A (0.5 μg/ml)
  3H-thymidine incorporation into splenic cells: 9982 cpm/culture
Splenic cells; compound 10 μg/ml, LSP (0.5 μ/ml)
  3H-thymidine incorporation into splenic cells: 4007 cpm/culture
Splenic cells; compound 10 μg/ml, no lectin
  3H-thymidine incorporation into splenic cells: 811 cpm/culture
Splenic cells; compound 20 μg/ml, Con A (0.5 μg/ml)
  3H-thymidine incorporation into splenic cells: 1267 cpm/culture
Splenic cells; compound 20 μg/ml, LSP (0.5 μ/ml)
  3H-thymidine incorporation into splenic cells: 665 cpm/culture
Splenic cells; compound 20 μg/ml, no lectin
  3H-thymidine incorporation into splenic cells: 105 cpm/culture
Splenic cells; culture free of any lectin
  Incorporation of 3H-thymidine without lectin (in words): more or less expedites the incorporation of ^3 H-thymidine into the splenic cells
Peritoneal macrophages; 1 μg-100 μg/mouse
  Phagocytosis of macrophage (in words): improve the phagocytosis of macrophage
Peritoneal macrophages; 1 μg/mouse
  T/C (phagocytosis of macrophage): 127%
Peritoneal macrophages; 10 μg/mouse
  T/C (phagocytosis of macrophage): 133%
Peritoneal macrophages; 100 μg/mouse
  T/C (phagocytosis of macrophage): 137%
Peritoneal macrophages; 1000 μg/mouse
  T/C (phagocytosis of macrophage): 115%
[4]; 100-400 μg/mouse
  Antibody production (in words): potentiate the antibody production
[4]; 0.4 μg/mouse
  T/C (antibody-producing cells): 106%
  Number of antibody-producing cells/spleen (average value): 221,130
[4]; 1.6 μg/mouse
  T/C (antibody-producing cells): 104%
  Number of antibody-producing cells/spleen (average value): 217,890
[4]; 6.2 μg/mouse
  T/C (antibody-producing cells): 91%
  Number of antibody-producing cells/spleen (average value): 189,216
[4]; 25 μg/mouse
  T/C (antibody-producing cells): 84%
  Number of antibody-producing cells/spleen (average value): 176,040
[4]; 100 μg/mouse
  T/C (antibody-producing cells): 191%
  Number of antibody-producing cells/spleen (average value): 398,520
[4]; 400 μg/mouse
  T/C (antibody-producing cells): 148%
  Number of antibody-producing cells/spleen (average value): 308,610
Myeloid cells; 0.001 μg/ml
  Number of CFU-C (±S.D.): 140 ± 6
Myeloid cells; 0.01 μg/ml
  Number of CFU-C (±S.D.): 156 ± 9
Myeloid cells; 0.1 μg/ml
  Number of CFU-C (±S.D.): 189 ± 3
Myeloid cells; 1 μg/ml
  Number of CFU-C (±S.D.): 221 ± 6
Myeloid cells; 10 μg/ml
  Number of CFU-C (±S.D.): 144 ± 16
Myeloid cells; 0.1 to 1 μg/ml
  Production of CFU-C (in words): remarkably potentiate the production of CFU-C
Myeloid cells; [5]
  activity at 0.001 µg/mL: 103%
  activity at 0.01 µg/mL: 115%
  activity at 0.1 µg/mL: 139%
  activity at 1 µg/mL: 163%
  activity at 10 µg/mL: 106%
mouse's spleen cells
  Concentration range of significant potentiation of the antibody-producing action (FIG. 2): 0.3 to 5 µg/mL
